Data on 44 compounds can be found in patent publication US10538490B2, “Benzylaminopyridylcyclopropanecarboxylic acids, pharmaceutical compositions and uses thereof” (Boehringer Ingelheim International GmbH, priority 2016, dated 2020).

The target of this assay is human GPR40 receptor (Homo sapiens, UniProt O14842). Description: IP1 accumulation measurements using the IPOne assay system. In kind it is cell-based. The settings on record: 1321N1 cells stably expressing human GPR40 receptor, stimulation 1 h at 37° C. On the procedure: IP1 accumulation measurements using the IPOne assay system—1321N1 cells stably expressing human GPR40 receptor (Euroscreen, Belgium) are seeded 24 h before the assay in white 384-well plates in culture medium containing 10% FCS, 1% Na-Pyruvate and 400 μg/mL G418. IPi is assayed according to the manufacturer's description (Cisbio Bioassays, France). In brief, the assay is started by substitution of the culture medium by stimulation buffer (Hepes 10 mM, CaCl2 1 mM, MgCl2 0.5 mM, KCl 4.2 mM, NaCl 146 mM, glucose 5.5 mM and LiCl 50 mM, pH 7.4). Cells are stimulated for 1 h at 37° C., 5% CO2 by addition of the compounds that are diluted in stimulation buffer containing LiCl. Assays are stopped by adding HTRF-conjugates (IP1-d2 and Anti-IP1 cryptate Tb) and lysis buffer, provided by the manufacturer. After an incubation time of 1 h at room temperature plates are measured using an EnVision™, Perkin Elmer. The obtained fluorescence ratios at 665/615 […] are then used to calculate the pEC50 values using Assay Explorer 3.3 Software (Accelrys, Inc.) by interpolation using an IP1 reference curve and subsequent sigmoidal curve fitting allowing for a variable hill slope.
human GPR40 receptor, sequence (O14842 whole entry): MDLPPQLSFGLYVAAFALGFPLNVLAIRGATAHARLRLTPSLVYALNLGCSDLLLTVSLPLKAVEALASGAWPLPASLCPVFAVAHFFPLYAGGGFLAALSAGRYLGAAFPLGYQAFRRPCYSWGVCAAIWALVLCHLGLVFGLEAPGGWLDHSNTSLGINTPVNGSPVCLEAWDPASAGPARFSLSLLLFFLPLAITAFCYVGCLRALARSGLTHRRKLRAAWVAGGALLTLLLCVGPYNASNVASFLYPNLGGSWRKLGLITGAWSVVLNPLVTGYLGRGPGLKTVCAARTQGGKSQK
Turning to `Cc1cc(OCc2ccccc2)cc(C)c1-c1cc(CNc2ccc([C@H]3C[C@@H]3C(=O)O)cn2)c(F)cc1F` [Example 89], the EC50 (usually the concentration at which the effect is half-maximal) is 0.065 µM.
With `Cc1cc(OCC2(O)CCS(=O)(=O)CC2)cc(C)c1-c1ccc(F)c(CNc2ccc([C@H]3C[C@@H]3C(=O)O)cn2)c1` [Example 57] the figure was 0.422 µM; with `O=C(O)[C@H]1C[C@@H]1c1ccc(NCc2cc(-c3c(F)cccc3F)ccc2F)nc1` [Example 20], 2.3 µM.
In turn, `Cc1cc(OCC(C)(C)C#N)cc(C)c1-c1cc(CNc2ccc([C@H]3C[C@@H]3C(=O)O)cn2)c(F)cc1F` [Example 88] showed an EC50 of 0.081 µM.
With `O=C(O)[C@H]1C[C@@H]1c1ccc(NCc2cc(-c3c(Cl)cccc3Cl)ccc2F)nc1` [Example 31] the figure was 0.105 µM.
With `Cc1cc(-c2cnccn2)cc(C)c1-c1ccc(F)c(CNc2ccc([C@H]3C[C@@H]3C(=O)O)cn2)c1` [Example 11] the figure was 0.021 µM; with `Cc1cc(OCC2(C)COC2)cc(C)c1-c1ccc(F)c(CNc2ccc([C@H]3C[C@@H]3C(=O)O)cn2)c1` [Example 45], 0.147 µM.
Consider `Cc1cc(OCC2CCOCC2)cc(C)c1-c1cc(CNc2ccc([C@H]3C[C@@H]3C(=O)O)cn2)c(F)cc1F` [Example 101], for which the EC50 was found to be 0.039 µM.
The compound `Cc1cc(-c2ccn(C)c(=O)n2)cc(C)c1-c1cc(CNc2ccc([C@H]3C[C@@H]3C(=O)O)cn2)c(F)cc1F` [Example 91] showed an EC50 of 0.043 µM.
With `Cc1cc(-c2ccc(=O)n(C)c2)cc(C)c1-c1ccc(F)c(CNc2ccc([C@H]3C[C@@H]3C(=O)O)cn2)c1` [Example 13] the figure was 0.017 µM.
With `Cc1cc(OCC2CCOC2)cc(C)c1-c1ccc(F)c(CNc2ccc([C@H]3C[C@@H]3C(=O)O)cn2)c1` (some centres unmarked) [Example 36] the figure was 0.085 µM; with `Cc1cc(OCC2(C)COC2)cc(C)c1-c1cc(CNc2ccc([C@H]3C[C@@H]3C(=O)O)cn2)c(F)cc1F` [Example 87], 0.089 µM; with `O=C(O)[C@H]1C[C@@H]1c1ccc(NCc2cc(-c3ccccc3C(F)(F)F)c(F)cc2F)nc1` [Example 66], 0.048 µM.
With `Cc1cc(OCC2(O)CCSCC2)cc(C)c1-c1cc(CNc2ccc([C@H]3C[C@@H]3C(=O)O)cn2)c(F)cc1F` [Example 98] the figure was 0.102 µM; with `Cc1cc(OCC(C)(C)O)cc(C)c1-c1cc(CNc2ccc([C@H]3C[C@@H]3C(=O)O)cn2)c(F)cc1F` [Example 83], 0.104 µM.
Turning to `Cc1cc(OCC2(O)CCSCC2)cc(C)c1-c1ccc(F)c(CNc2ccc([C@H]3C[C@@H]3C(=O)O)cn2)c1` [Example 16], the EC50 was 0.064 µM.
In the case of `O=C(O)[C@H]1C[C@@H]1c1ccc(NCc2cc(-c3c(Cl)cccc3Cl)c(F)cc2F)nc1` [Example 73], the concentration for a half-maximal effect (EC50) was 0.04 µM.
As to `Nc1cc(F)c(-c2ccc(F)c(CNc3ccc([C@H]4C[C@@H]4C(=O)O)cn3)c2)c(F)c1` [Example 28], the EC50 amounted to 6.72 µM.
In the case of `Cc1cc(OC2CCOCC2)cc(C)c1-c1cc(CNc2ccc([C@H]3C[C@@H]3C(=O)O)cn2)c(F)cc1F` [Example 84], the response was half-maximal at 0.057 µM (EC50).
With `O=C(O)[C@H]1C[C@@H]1c1ccc(NCc2cc(-c3ccccc3C(F)(F)F)ccc2F)nc1` [Example 24] the figure was 0.204 µM.
Compound `Cc1cc(C(=O)O)cc(C)c1-c1cc(CNc2ccc([C@H]3C[C@@H]3C(=O)O)cn2)c(F)cc1F` [Example 69] gave an EC50 of 5.96 µM. This EC50 lies about 29-fold higher than the previous one.
With `COc1cc(OC)c(F)c(-c2cc(CNc3ccc([C@H]4C[C@@H]4C(=O)O)cn3)c(F)cc2F)c1F` [Example 94] the figure was 1.32 µM.
With `COc1cc(OC)c(Cl)c(-c2cc(CNc3ccc([C@H]4C[C@@H]4C(=O)O)cn3)c(F)cc2F)c1Cl` [Example 75] the figure was 0.05 µM; with `Cc1cc(-c2ccn(C)c(=O)c2)cc(C)c1-c1ccc(F)c(CNc2ccc([C@H]3C[C@@H]3C(=O)O)cn2)c1` [Example 44], 0.032 µM.
With `Cc1cc(C(=O)N(C)C)cc(C)c1-c1cc(CNc2ccc([C@H]3C[C@@H]3C(=O)O)cn2)c(F)cc1F` [Example 103] the figure was 0.462 µM; with `N#CC1(c2ccccc2-c2cc(CNc3ccc([C@H]4C[C@@H]4C(=O)O)cn3)c(F)cc2F)CC1` [Example 74], 1.34 µM.
`COc1cc(OC)c(F)c(-c2ccc(F)c(CNc3ccc([C@H]4C[C@@H]4C(=O)O)cn3)c2)c1F` [Example 52] yielded an EC50 of 1.34 µM.
On to `CNC(=O)c1cc(C)c(-c2ccc(F)c(CNc3ccc([C@H]4C[C@@H]4C(=O)O)cn3)c2)c(C)c1` [Example 59], for which the EC50 is 0.375 µM.
`N#Cc1cccc(C#N)c1-c1cc(CNc2ccc([C@H]3C[C@@H]3C(=O)O)cn2)c(F)cc1F` [Example 65] displayed an EC50 above 10 µM.
With `NCc1ccc(F)c(-c2cc(CNc3ccc([C@H]4C[C@@H]4C(=O)O)cn3)c(F)cc2F)c1` [Example 3, (1S,2S)-2-{6-[(5′-Aminomethyl-4,6,2′-trifluoro-biphenyl-3-ylmethyl)-amino]-pyridin-3-yl}-cyclopropanecarboxylic Acid] the figure was above 10 µM; with `O=C(O)[C@H]1C[C@@H]1c1ccc(NCc2cc(-c3c(C(F)(F)F)cccc3C(F)(F)F)ccc2F)nc1` [Example 21], 0.834 µM.
With `Cc1cc(C(=O)O)cc(C)c1-c1ccc(F)c(CNc2ccc([C@H]3C[C@@H]3C(=O)O)cn2)c1` [Example 27] the figure was above 10 µM; with `Cc1cc(-c2nnn(CC(C)(C)O)n2)cc(C)c1-c1ccc(F)c(CNc2ccc([C@H]3C[C@@H]3C(=O)O)cn2)c1` [Example 14], 0.011 µM; with `Cc1cc(OCC2CCOCC2)cc(C)c1-c1ccc(F)c(CNc2ccc([C@H]3C[C@@H]3C(=O)O)cn2)c1` [Example 58], 0.043 µM.
With `Cc1cc(-c2ccn(C)c(=O)n2)cc(C)c1-c1ccc(F)c(CNc2ccc([C@H]3C[C@@H]3C(=O)O)cn2)c1` [Example 49] the figure was 0.072 µM; with `O=C(O)[C@H]1C[C@@H]1c1ccc(NCc2cc(-c3c(F)cc(OC4CC4)cc3F)c(F)cc2F)nc1` [Example 71], 0.14 µM.
Turning to `O=C(O)[C@H]1C[C@@H]1c1ccc(NCc2cc(-c3c(F)cc(OC4CC4)cc3F)ccc2F)nc1` [Example 29], the EC50 is 0.57 µM.
The compound `Cc1cc(OCC(=O)O)cc(C)c1-c1ccc(F)c(CNc2ccc([C@H]3C[C@@H]3C(=O)O)cn2)c1` [Example 17] registered an EC50 of 0.353 µM.
Take `Cc1cc(C(=O)N(C)C)cc(C)c1-c1ccc(F)c(CNc2ccc([C@H]3C[C@@H]3C(=O)O)cn2)c1` [Example 60]: the EC50 was 0.55 µM.
`COc1c(F)c(F)c(-c2cc(CNc3ccc([C@H]4C[C@@H]4C(=O)O)cn3)c(F)cc2F)c(F)c1F` [Example 64]: it took 0.123 µM to reach a half-maximal effect (EC50).
With `Cc1cc(OCC(C)(C)C#N)cc(C)c1-c1ccc(F)c(CNc2ccc([C@H]3C[C@@H]3C(=O)O)cn2)c1` [Example 46] the figure was 0.096 µM.
With `Cc1cc(O[C@H]2CCOC2)cc(C)c1-c1cc(CNc2ccc([C@H]3C[C@@H]3C(=O)O)cn2)c(F)cc1F` [Example 79] the figure was 0.042 µM.
On to `Cc1cc(-c2ccn(C)c(=O)c2)cc(C)c1-c1cc(CNc2ccc([C@H]3C[C@@H]3C(=O)O)cn2)c(F)cc1F` [Example 86], for which the response was half-maximal at 0.029 µM (EC50).
With `CNC(=O)c1cc(C)c(-c2cc(CNc3ccc([C@H]4C[C@@H]4C(=O)O)cn3)c(F)cc2F)c(C)c1` [Example 102] the figure was 0.42 µM.
